In brackets after ≈: the same amount, converted by molar mass.
Columns and labels:
[1] = in vitro release of the drug from the tablets, USP Apparatus II; format: physicochemical; conditions: for release rate / release mechanism: without a pH modulator
Description: The in vitro release of the drug from the tablets prepared as above was determined using USP Apparatus II, paddle speed 75 rpm, at 37° C. in 900 ml of dissolution media with pH values 1.2, 1.7 and 6.8. The pH 1.2 and 1.7 media consisted of 0.1N HCl solution adjusted to the appropriate pH by the addition of sodium hydroxide. The pH 6.8 medium consisted of 0.7% sodium dodecyl sulfate in 10 mM phosphate buffer.

[2] = pH-dependent solubility of the beneficial agent; format: physicochemical
Description: The formulation of the instant invention was prepared using 1-(3-chlorophenyl)-4-[1-(4-cyanobenzyl)-5-imidazolyl methyl]-2-piperazinone is used as the beneficial agent. The solubility of the beneficial agent decreases from about 1 g/mL at pH 1 to about 70 μg/mL at pH 7, with the solubility cliff occurring at about pH 3.5.

release rate / release mechanism ([1]; pH about 1.2 (FIG. 1)): dominated by dissolution and diffusion
solubility cliff (pH at which it occurs) [2]: ~3.5 pH
solubility (in words) ([2]; low pH levels (less than about 2)): very soluble
solubility (in words) ([2]; near neutral pH levels (greater than about 5)): practically insoluble
solubility ([2]; pH 1, simulated gastric fluid): ~1000 mg/mL (≈ 2460 mM)
solubility ([2]; pH 7, aqueous buffer): ~0.07 mg/mL (≈ 0.172 mM)
Structure (SMILES): N#Cc1ccc(Cn2cncc2CN2CCN(c3cccc(Cl)c3)C(=O)C2)cc1 [1-(3-chlorophenyl)-4-[1-(4-cyanobenzyl)-5-imidazolylmethyl]-2-piperazinone]
release rate ([1]; with a pH modulator, over a range of pH levels (FIG. 2)): relatively similar over a range of pH levels
release rate / release mechanism ([1]; media pH about 2.2 to about 6.8 (FIG. 1)): controlled by the gel extrusion mechanism
release rate / release mechanism ([1]; pH about 1.7 (FIG. 1)): both the dissolution/diffusion and gel extrusion mechanisms are repressed
